Data published in article PMC10744608, “Simplified Synthesis of Renieramycin T Derivatives to Target Cancer Stem Cells via β-Catenin Proteasomal Degradation in Human Lung Cancer” (Marine Drugs, 2023).

Experiments:
Type in all cases: cell-based, human
H292 cells [1] = assay: Western blot of apoptosis-related proteins (cleaved PARP, Bcl-2, Bax)
Experimental: (§1) The protein expression levels in NSCLC cells were assessed through Western blot analysis. A549, H23, and H292 cells were seeded at a density of 4 × 10^5 cells per well in 6-well cell culture plates. These cells were subjected to treatments with DH_32 at concentrations of 0, 25, 50, and 100 nM for 24 h at 37 °C.
(§2) Following treatment, the cells were collected using cold PBS and incubated on ice with a lysis buffer. The lysis buffer contained 50 mM 4-(2-hydroxyethyl)-1-piperazineethanesulfonic acid (pH 7.5), 150 mM NaCl, 5 mM EDTA, 1% Triton X-100, 1 mM phenylmethylsufonyl fluoride, and 2 μg/mL pepstatin A (cat no: 9803, Cell Signaling), along with complete protease inhibitor cocktail tablets provided in EASYpack (Roche, cat no: 04693116001). The incubation occurred for 40 min on ice, followed by centrifugation at 12,000× g at 4 °C for 15 min. Cell lysates were collected, and the protein content was quantified using the bicinchoninic acid (BCA) protein kit from Thermo-Fisher Scientific, Rockford, IL, USA. The sample was denatured by heating at 95 °C for 5 min with a sample buffer. The protein was loaded onto a 10% sodium dodecyl sulfate polyacrylamide gel electrophoresis (SDS-PAGE). Following gel separation, the proteins were transferred onto a nitrocellulose membrane with a pore size of 0.45 μm. The membranes were incubated with 5% nonfat dry milk in TBST (25 mm Tris-HCl, pH 7.4, 125 mm NaCl, and 0.05% Tween 20) for 1 h 30 min. Following this, the membrane was exposed to primary antibodies (Cell Signaling) including rabbit PARP, BcL2, Bax, CD133, CD44, OCT4, ALDH1A1, and β-catenin, and incubated at 4 °C overnight. Rabbit β-actin served as the control for loading normalization. The primary antibodies were diluted to 1:1000 in 5% w/v BSA in TBST. The membranes were washed with TBST and were then exposed to horseradish-peroxidase (HRP)-conjugated isotype-specific secondary antibodies, as well as anti-rabbit and anti-mouse IgG (1:2000 in 5% w/v skim milk in TBST), for 1 h at RT. Membranes were washed again with TBST. A chemiluminescent substrate (Supersignal West Pico; Pierce, Rockford, IL, USA) was applied to detect complex reactivity, and the signal intensity was quantified through densitometry. Protein intensity was analyzed by using ImageJ software (Image J 1.52a, Rasband, W., National Institutes of Health, Bethesda, MD, USA). RT acted as the positive control for this experiment.

A549 cells = assay: as above
Experimental: as §1, §2

H23 cells [2] = assay: as above
Experimental: as §1, §2

[3] = system: A549, H23, and H292 cells; assay: Immunofluorescence of stem cell markers and transcription factors; conditions: A549, H23, and H292, 50 nM, 24 h
Experimental: A549, H23, and H292 NSCLC cells were seeded at a concentration of 1 × 10^4 cells per well in 96-well plates. The cells were exposed to different concentrations of DH_32 (0, 25, 50, and 100 nM) for 24 h, after which the medium was removed. Following that, the cells were subjected to fixation with 4% paraformaldehyde for 15 min. The cells were permeabilization with 0.5% Triton-X for 5 min, followed by the blocking of non-specific proteins with 10% FBS in 0.1% Triton-X PBS for 1 h at room temperature. The cells were exposed to a 1:400 dilution of primary antibodies (CD133, CD44, ALDH1A1, OCT4, NANOG, SOX2, and β-catenin) and incubated at 4 °C overnight. On the subsequent day, the cells were treated with a 1:500 dilution of the following secondary antibodies: Alexa Fluor 594-conjugated goat anti-rabbit IgG (H+L) (Invitrogen) and Alexa Fluor 488-conjugated goat anti-mouse IgG (H+L) (Invitrogen). Simultaneously, the localization of nuclei was stained with Hoechst 33342 for 1 h at room temperature. The cells were rinsed with PBS and then covered with 50% glycerol. The images were captured by a fluorescence microscope (Olympus IX 51 with DP70; Olympus America Inc., Center valley, PA, USA). The fluorescence intensity was measured by Image J software. RT acted as the positive control for this experiment.

H292 cells [4] = assay: RT-qPCR of stemness transcription factors; conditions: H292, 6 h
Experimental: (§3) RNA extraction was performed on DH_32-treated cells (3 × 10^5 cells per well in 6-well plates) using GENEzol as the reagent. Total RNA was used to synthesize cDNA through the application of SuperScript III reverse transcriptase from Invitrogen. Following cDNA synthesis, 100 ng of the cDNA was utilized for RT-qPCR, employing Luna Universal qPCR Master Mix from NEB, UK, in a final volume of 20 µL. The reaction mixture was conducted using the CFX 96 real-time PCR system from Bio-Rad, located in Hercules, CA. For the RT-qPCR, the protocol included an initial denaturation step at 95 °C for 1 min, followed by 45 cycles involving denaturation at 95 °C for 10 s, annealing and extension at 60 °C for 30 s. Melting curve analysis was employed to assess the specificity of the primers. The targeted primer genes were: The gene expression levels were normalized using the GAPDH gene as an internal control. The relative mRNA gene expression level for each gene was determined based on the comparative Cq values. RT acted as the positive control for this experiment.

H23 cells [5] = assay: RT-qPCR of stemness transcription factors; conditions: H23, 6 h
Experimental: as §3

COC1=C(C)C(=O)C2=C(C1=O)[C@@H]1CN(Cc3ccc4ccccc4c3)[C@@H](C#N)[C@H](C2)N1C [DH_32, (1R,4R,5S)-9-methoxy-8,11-dimethyl-3-(naphthalen-2-ylmethyl)-7,10-dioxo-1,2,3,4,5,6,7,10-octahydro-1,5-epiminobenzo[d]azocine-4-carbonitrile]
anti-apoptotic Bcl-2 protein level (H292 cells [1]; H292, 0–100 nM, 24 h): significant reduction in a dose-dependent manner | cleaved PARP level (H292 cells [1]; H292, 50 nM, 24 h): substantial increase | pro-apoptotic protein Bax level (H292 cells [1]; H292, 24 h): remained unaltered | anti-apoptotic Bcl-2 protein level (A549 cells; A549, 0–100 nM, 24 h): significant reduction in a dose-dependent manner | cleaved PARP level (A549 cells; A549, 50 nM, 24 h, compared to the RT treatment): six-fold increase | pro-apoptotic protein Bax level (A549 cells; A549, 24 h, compared to the parent compound): two-fold increase | anti-apoptotic Bcl-2 protein level (H23 cells [2]; H23, 0–100 nM, 24 h): significant reduction in a dose-dependent manner | cleaved PARP level (H23 cells [2]; H23, 50 nM, 24 h): substantial increase | pro-apoptotic protein Bax level (H23 cells [2]; H23, 24 h): remained unaltered | fluorescence signals of stem cell markers CD133, CD44, and ALDH1A1 [3]: approximately 0.5 fold | fluorescence signals of stem cell transcription factors OCT4, NANOG, and SOX2 [3]: approximately 0.5 fold | mRNA of OCT4, NANOG, and SOX2 (H292 cells [4]): significantly decreased | mRNA of OCT4, NANOG, and SOX2 (H23 cells [5]): significantly decreased
